Test results taken from US6908935B2, “Calcium receptor modulating agents” (Amgen Inc., priority 2002, dated 2005).

What follows are compounds tested against T1, human parathyroid cell Ca^2+ receptor (hPCaR) (Homo sapiens, UniProt P41180) (assay: [Ca2+]i measurement with fluo-3 in HEK 293 4.0-7 cells stably transfected with hPCaR). Conditions: fluo-3 fluorescence (485/530 nm), effect on [Ca^2+]i.
T1 construct: expressed in transfected cells
T1 sequence (P41180 20-1078): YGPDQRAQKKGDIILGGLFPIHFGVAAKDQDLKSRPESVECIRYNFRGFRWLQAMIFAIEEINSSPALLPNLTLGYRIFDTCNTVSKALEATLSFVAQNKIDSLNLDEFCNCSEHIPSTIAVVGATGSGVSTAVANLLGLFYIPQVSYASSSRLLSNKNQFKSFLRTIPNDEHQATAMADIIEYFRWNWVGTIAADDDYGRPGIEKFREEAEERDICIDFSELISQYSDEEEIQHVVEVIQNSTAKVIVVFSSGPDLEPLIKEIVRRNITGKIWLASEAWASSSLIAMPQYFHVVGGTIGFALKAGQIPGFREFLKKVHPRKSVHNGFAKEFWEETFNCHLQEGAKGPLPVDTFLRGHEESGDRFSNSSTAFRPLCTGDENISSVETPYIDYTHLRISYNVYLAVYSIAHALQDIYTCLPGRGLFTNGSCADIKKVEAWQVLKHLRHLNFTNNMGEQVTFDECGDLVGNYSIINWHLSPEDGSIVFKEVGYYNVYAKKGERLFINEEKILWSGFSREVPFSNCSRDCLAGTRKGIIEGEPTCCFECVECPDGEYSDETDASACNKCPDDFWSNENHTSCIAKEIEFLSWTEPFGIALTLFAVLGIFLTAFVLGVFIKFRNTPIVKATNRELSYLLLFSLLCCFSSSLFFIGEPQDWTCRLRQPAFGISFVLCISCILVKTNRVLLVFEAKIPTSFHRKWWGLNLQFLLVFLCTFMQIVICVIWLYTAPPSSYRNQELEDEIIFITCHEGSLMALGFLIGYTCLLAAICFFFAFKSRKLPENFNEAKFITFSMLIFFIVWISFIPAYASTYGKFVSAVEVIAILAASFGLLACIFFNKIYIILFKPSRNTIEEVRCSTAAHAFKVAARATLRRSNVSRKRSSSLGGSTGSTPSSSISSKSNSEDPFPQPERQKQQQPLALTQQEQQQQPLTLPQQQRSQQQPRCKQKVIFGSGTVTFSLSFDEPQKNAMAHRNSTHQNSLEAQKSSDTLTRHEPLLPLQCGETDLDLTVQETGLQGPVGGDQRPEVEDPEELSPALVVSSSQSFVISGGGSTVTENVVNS
Type: cell-based
Outline: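 HEK 293 cells stably expressing human parathyroid Ca2+ receptor (clone 4.0-7), loaded with 2 μM fluo-3 AM for 30 min at 37 °C in parathyroid cell buffer (pH 7.45) with 1 mM CaCl2 and 0.5% BSA. After compound addition, intracellular Ca2+ followed by fluorescence at 485 nm excitation/530 nm emission.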

| EC50 [µM] | SMILES |
| --- | --- |
| ≤ 10 | C[C@@H](NCc1ccc(Cl)c(-c2ccc(OC(F)(F)F)cc2)c1)c1cccc2ccccc12 [(1R)-N-((6-chloro-4′-((trifluoromethyl)oxy)-1,1′-biphenyl-3-yl)methyl)-1-(1-naphthalenyl)ethanamine] |
| ≤ 10 | COc1ccc(CN[C@H](C)c2ccccc2)cc1-c1ccc2c(cnn2C)c1 [(1R)-N-((3-(1-methyl-1H-indazol-5-yl)-4-(methyloxy)phenyl)methyl)-1-phenylethanamine] |
| ≤ 10 | COc1cccc([C@@H](C)NCc2cccc(-c3cnccn3)c2)c1 [(1R)-1-(3-(methyloxy)phenyl)-N-((3-(2-pyrazinyl)phenyl)methyl)ethanamine] |
| ≤ 10 | COc1ccc(CN[C@H](C)c2ccccc2)cc1-c1cnc2c(ccn2C)c1 [(1R)-N-((4-(methyloxy)-3-(1-methyl-1H-pyrrolo[2,3-b]pyridin-5-yl)phenyl)methyl)-1-phenylethanamine] |
| ≤ 10 | COc1cccc([C@@H](C)NCc2cccc(-c3ccc(OC)nn3)c2)c1 [(1R)-1-(3-(methyloxy)phenyl)-N-((3-(6-(methyloxy)-3-pyridazinyl)phenyl)methyl)ethanamine] |
| ≤ 10 | COc1ccc(CN[C@H](C)c2ccccc2)cc1-c1ccc(OCC(F)(F)F)nc1 [(1R)-N-((4-(methyloxy)-3-(6-((2,2,2-trifluoroethyl)oxy)-3-pyridinyl)phenyl)methyl)-1-phenylethanamine] |
| ≤ 10 | COc1cccc([C@@H](C)NCc2ccc(OC)c(-c3ccc(OCC(F)(F)F)nc3)c2)c1 [(1R)-1-(3-(methyloxy)phenyl)-N-((4-(methyloxy)-3-(6-((2,2,2-trifluoroethyl)oxy)-3-pyridinyl)phenyl)methyl)ethanamine] |
| ≤ 10 | COc1ccc(CN[C@H](C)c2cccc3ccccc23)cc1-c1csc2ccccc12 [(1R)-N-((3-(1-benzothien-3-yl)-4-(methyloxy)phenyl)methyl)-1-(1-naphthalenyl)ethanamine] |
| ≤ 10 | Cc1ccc([C@@H](C)NCc2cccc(-c3ccc(C)nc3)c2)cc1 [(1R)-1-(4-methylphenyl)-N-((3-(6-methyl-3-pyridinyl)phenyl)methyl)ethanamine] |
| ≤ 10 | COc1cccc([C@@H](C)NCc2cccc(-c3cncc(C(N)=O)c3)c2)c1 [5-(3-((((1R)-1-(3-(methyloxy)phenyl)ethyl)amino)methyl)phenyl)-3-pyridinecarboxamide] |
| ≤ 10 | COc1ccc(CN[C@H](C)c2ccccc2)cc1-c1ccc2c(ccn2CC2CC2)c1 [(1R)-N-((3-(1-(cyclopropylmethyl)-1H-indol-5-yl)-4-(methyloxy)phenyl)methyl)-1-phenylethanamine] |
| ≤ 10 | COc1ccc(CN[C@H](C)c2ccccc2)cc1-c1cccnc1NCC1CCCO1 (stereo partly drawn) [3-(2-(methyloxy)-5-((((1R)-1-phenylethyl)amino)methyl)phenyl)-N-(tetrahydro-2-furanylmethyl)-2-pyridinamine] |
| ≤ 10 | COc1ccc([C@@H](C)NCc2cccc(-c3cccc(OC)c3)c2)cc1 [(1R)-N-((3′-(methyloxy)-1,1′-biphenyl-3-yl)methyl)-1-(4-(methyloxy)phenyl)ethanamine] |
| ≤ 10 | COc1ccc([C@@H](C)NCc2ccc(OC)c(-c3ccc(OC)nn3)c2)cc1 [(1R)-N-((4-(methyloxy)-3-(6-(methyloxy)-3-pyridazinyl)phenyl)methyl)-1-(4-(methyloxy)phenyl)ethanamine] |
| ≤ 10 | COc1ccc(CN[C@H](C)c2ccc3ccccc3c2)cc1-c1cncc(C(N)=O)c1 [5-(2-(methyloxy)-5-((((1R)-1-(2-naphthalenyl)ethyl)amino)methyl)phenyl)-3-pyridinecarboxamide] |
| ≤ 10 | COc1ccc(CN[C@H](C)c2ccccc2)cc1-c1ccc(OC(F)(F)F)cc1 [(1R)-N-((6-(methyloxy)-4′-((trifluoromethyl)oxy)-1,1′-biphenyl-3-yl)methyl)-1-phenylethanamine] |

| EC50 [µM] | SMILES |
| --- | --- |
| ≤ 10 | COc1cccc([C@@H](C)NCc2ccc(OC)c(-c3ncccn3)c2)c1 [(1R)-1-(3-(methyloxy)phenyl)-N-((4-(methyloxy)-3-(2-pyrimidinyl)phenyl)methyl)ethanamine] |
| ≤ 10 | COc1ccc(CN[C@H](C)c2cccc3ccccc23)cc1-c1ccoc1 [(1R)-N-((3-(3-furanyl)-4-(methyloxy)phenyl)methyl)-1-(1-naphthalenyl)ethanamine] |
| ≤ 10 | C[C@@H](NCc1cccc(-c2ccccn2)c1)c1ccccc1 [(1R)-1-phenyl-N-((3-(2-pyridinyl)phenyl)methyl)ethanamine] |
| ≤ 10 | COc1ccc([C@@H](C)NCc2ccc(OC)c(-c3ccccc3)c2)cc1 [(1R)-N-((6-(methyloxy)-1,1′-biphenyl-3-yl)methyl)-1-(4-(methyloxy)phenyl)ethanamine] |
| ≤ 10 | COc1ccc([C@@H](C)NCc2ccc(F)c(-c3ccc(F)cc3)c2)cc1 [(1R)-N-((4′,6-difluoro-1,1′-biphenyl-3-yl)methyl)-1-(4-(methyloxy)phenyl)ethanamine] |
| ≤ 10 | COc1ccc(CN[C@H](C)c2ccccc2)cc1-c1ccc2nccn2c1 [(1R)-N-((3-imidazo[1,2-a]pyridin-6-yl-4-(methyloxy)phenyl)methyl)-1-phenylethanamine] |
| ≤ 10 | COc1cccc(-c2cccc(CN[C@H](C)c3ccc(C)cc3)c2)c1 [(1R)-N-((3′-(methyloxy)-1,1′-biphenyl-3-yl)methyl)-1-(4-methylphenyl)ethanamine] |
| ≤ 10 | COc1ccc([C@@H](C)NCc2cccc(-c3ccccn3)c2)cc1 [(1R)-1-(4-(methyloxy)phenyl)-N-((3-(2-pyridinyl)phenyl)methyl)ethanamine] |
| ≤ 10 | COc1ccc(CN[C@H](C)c2ccccc2)cc1-c1cccc(C(=O)O)c1 [2′-(methyloxy)-5′-((((1R)-1-phenylethyl)amino)methyl)-1,1′-biphenyl-3-carboxylic acid] |
| ≤ 10 | COc1cccc([C@@H](C)NCc2ccc(OC)c(-c3cnccn3)c2)c1 [(1R)-1-(3-(methyloxy)phenyl)-N-((4-(methyloxy)-3-(2-pyrazinyl)phenyl)methyl)ethanamine] |
| ≤ 10 | COc1ccc([C@@H](C)NCc2cccc(-c3ccoc3)c2)cc1 [Example 223, (1R)-N-((3-(3-furanyl)phenyl)methyl)-1-(4-(methyloxy)phenyl)ethanamine] |
| ≤ 10 | CCOC(=O)c1ccc(-c2cc(CN[C@H](C)c3cccc(OC)c3)ccc2OC)cc1 [ethyl 2′-(methyloxy)-5′-((((1R)-1-(3-(methyloxy)phenyl)ethyl)amino)methyl)-1,1′-biphenyl-4-carboxylate] |
| ≤ 10 | Cc1ccc([C@@H](C)NCc2cccc(-c3ccccc3C)c2)cc1 [(1R)-N-((2′-methyl-1,1′-biphenyl-3-yl)methyl)-1-(4-methylphenyl)ethanamine] |
| ≤ 10 | COc1ccc(CN[C@H](C)c2cccc3ccccc23)cc1-c1ccsc1 [(1R)-N-((4-(methyloxy)-3-(3-thienyl)phenyl)methyl)-1-(1-naphthalenyl)ethanamine] |
| ≤ 10 | Cc1ccc(CN[C@H](C)c2ccccc2)cc1-c1cccnc1 [Example 451, (1R)-N-((4-methyl-3-(3-pyridinyl)phenyl)methyl)-1-phenylethanamine] |
| ≤ 10 | COc1ccc(CN[C@H](C)c2cccc3ccccc23)cc1C1CCN(C(C)=O)CC1 [(1R)-N-((3-(1-acetyl-4-piperidinyl)-4-(methyloxy)phenyl)methyl)-1-(1-naphthalenyl)ethanamine] |
